Publication PMC8465290, “Zoledronic Acid as a Novel Dual Blocker of KIR6.1/2-SUR2 Subunits of ATP-Sensitive K^+ Channels: Role in the Adverse Drug Reactions” (Pharmaceutics, 2021)
pIC50: −log10 of the molar value.

Columns and labels:
KIR6.1-SUR1 = target: T1, KIR6.1-SUR1 (Homo sapiens, UniProt Q09428+Q15842); assay: Whole-cell current of recombinant KIR6.1-SUR1 in Hek293 cells; assay type: cell-based; conditions: Hek293 cells KIR6.1-SUR1, whole-cell, −60 mV
T1 construct: expressed in transfected cells; host or cells: Hek293
Protocol: (§1) For experiments on recombinant channel subunits, Hek293 cells were transfected with the relevant plasmids, as previously described.
(§2) The solutions for whole-cell and cell attached patches were as follows. The pipette solution contained 132 mM KCl, 1 mM ethylene glycol-bis(β-aminoethylether)-N,N,N′,N′-tetraaceticacid (EGTA), 10 mM NaCl, 2 mM MgCl2, 10 mM HEPES, 1 mM Na2ATP, and 0.3 mM Na2GDP (pH = 7.2). The bath solution contained 142 mM NaCl, 2.8 mM KCl, 1 mM CaCl2, 1 mM MgCl2, 11 mM glucose, and 10 mM HEPES (pH = 7.4).
CaCl2 was added to the pipette solutions to give a free Ca^2+ ion concentration of 1.6 × 10^−6 M in whole-cell experiments. The calculation of the free Ca^2+ ion concentration in the pipette was performed using the MaxChelator software (Stanford University; Stanford, CA, USA). […]
Drug actions on the channel currents recorded during instantaneous I/V relationships were investigated by applying a depolarization protocol, in response to voltage pulses from −180 mV to +100 mV (Vm) in 20 mV steps. Currents were expressed as densities (pA/pF) to control for cell size/capacitance differences. […] Seal resistance was continuously monitored during the experiment.
(§3) The percentage of KATP current inhibition induced by ZOL was calculated as (I CTRL-I drug)/(I CTRL-I BaCl2) × −100. […]

[1] = target: T2, KATP channels of Extensor digitorum longus (EDL) muscle fibers (Mus musculus, UniProt P70170+Q61743); assay: KATP currents in excised macro-patches from EDL muscle fibers (patch-clamp); assay type: cell-based, mice; conditions: excised macropatches
T2 construct: The KATP currents of native skeletal muscle fibers were recorded in excised macro patches; from tissue; host or cells: isolated Extensor digitorum longus muscle fibers of C57BL mice
Source text: (§4) In accordance with 3R RULE (DIRECTIVE 2010/63/EU) Replace, Reduce, Refine, bone and skeletal muscle were collected from wild-type male mice C57BL sacrificed for other scientific purposes (Ethic Committee name, Organization for Animal Health O.P.B.A. University of Bari, Italy, project: 7282018PR). The fibers were enzymatically isolated from Extensor digitorum longus (EDL) and Soleus (SOL) muscles, as previously described.
(§5) The solutions for excised patch experiments on isolated muscle fibers were as follows. The patch-pipette solution contained 150 mM KCl, 2 mM CaCl2, and 1 mM Mops (pH 7.2); the bath solution contained 150 mM KCl, 5 mM EGTA, and 10 mM Mops (pH 7.2).
(§6) The KATP currents of native skeletal muscle fibers were recorded in excised macro patches using pipettes of 0.9–1.2 MΩ of resistance on isolated skeletal muscle fibers in symmetrical 150 mM K^+ ions concentrations on both sides of the membrane during pulse going from 0 mV to −60 mV (Vm), as previously described.
(§7) Drug actions on the channel currents recorded during instantaneous I/V relationships were investigated by applying a depolarization protocol, in response to voltage pulses from −180 mV to +100 mV (Vm) in 20 mV steps. Currents were expressed as densities (pA/pF) to control for cell size/capacitance differences. All experiments were performed at room temperature (20–22 °C) and sampled at 2 kHz (filter = 1 kHz) using an Axopatch-1D amplifier equipped with a CV-4 headstage (Axon Instruments; Foster City, CA, USA). Drug solutions were applied using a fast perfusion system during the continuous monitoring of the seal resistance at 18–22 °C room temperature in excised patches. In whole-cell and cell-attached patch-clamp experiments, before recording, the cells were equilibrated for 10 s with the solution. […] Seal resistance was continuously monitored during the experiment.
as §3

KIR6.1-SUR2B = target: T3, KIR6.1-SUR2B (Homo sapiens, UniProt O60706+Q15842); assay: Whole-cell current of recombinant KIR6.1-SUR2B in Hek293 cells; assay type: cell-based
T3 construct: expressed in transfected cells; host or cells: Hek293
Protocol: as §1, §2
(§8) CaCl2 was added to the pipette solutions to give a free Ca^2+ ion concentration of 1.6 × 10^−6 M in whole-cell experiments. The calculation of the free Ca^2+ ion concentration in the pipette was performed using the MaxChelator software (Stanford University; Stanford, CA, USA).
(§9) The whole-cell and cell-attached patch-clamp experiments were performed in asymmetrical K^+ ion concentration in physiological conditions using pipettes with the resistance of 3–5 MΩ.
as §7, §3

KIR6.2-SUR1 = target: T4, KIR6.2-SUR1 (Homo sapiens, UniProt Q09428+Q14654); assay: Whole-cell current of recombinant KIR6.2-SUR1 in Hek293 cells; assay type: cell-based; conditions: Hek293 cells KIR6.2-SUR1, whole-cell
T4 construct: expressed in transfected cells; host or cells: Hek293
Protocol: as §1, §2, §8, §9, §7, §3

[2] = Pharmacovigilance analysis of A.D.R. in EudraVigilance database; parameters: species or system human; conditions: for rhabdomyolysis, % of A.D.R.: within musculoskeletal and connective tissue disorders
Source text: All coding preferred terms per System Organ Class (S.O.C.) were screened in the EudraVigilance database (http://www.adrreports.eu/ accessed on 1 May 2021), and those potentially associated with KATP channel blocking actions were reported and subject to analysis.
The data were extracted from EudraVigilance, collected, and analyzed on Microsoft 365 Excel software package (Microsoft 10.00). The not specified category was not included in the calculation. The duplication of a specific report per S.O.C. was evaluated manually and excluded from the analysis.
The Proportional Reporting Ratio (P.R.R.) was calculated using the following equation: a/(a+c)/b/(b + d) where a is the reaction of interest to a given drug of interest, b is the reaction of interest for all other drugs in the class, c are all other reactions to a given drug of interest, and d are all other reactions to all other drugs in the class. Signal definition: P.R.R. ≥ 2, a minimum of three ratios/cases for the reaction of interest, X^2 ≥ 4. No signal is identified if P.R.R. is = 1 [47].

[3] = test system: KATP channels of femora primary bone cells; assay: KATP currents in cell-attached patches of femora (long bone) primary bone cells; assay type: cell-based, mice; conditions: Femora primary bone cells, cell-attached patches
Protocol: The culture of primary bone cells from adult mice was obtained from long bones (tibia and femur) and calvaria, as previously described. Bones were collected, cleaned, and flushed for removing the internal bone marrow cells. Small bone pieces of around 1 mm^3 were treated with trypsin-EDTA 0.25% (w/v) for 1 h and with 0.2% collagenase solution for an additional hour in a shaking water bath to remove all remaining soft tissue and adherent cells. Clean bone pieces have been cultured in basal medium enriched with 50 µg/mL of ascorbic acid. Osteoblasts from femora (Figure S1A, Supplementary Material) and calvaria chips (Figure S1B) were positive to Alizarin red staining (Figure S1C). The marker of osteoblasts was positive, as tested by the PCR expression analysis on cell pellets (Figure S1D).
as §2, §9
Drug actions on the channel currents recorded during instantaneous I/V relationships were investigated by applying a depolarization protocol, in response to voltage pulses from −180 mV to +100 mV (Vm) in 20 mV steps. Currents were expressed as densities (pA/pF) to control for cell size/capacitance differences. All experiments were performed at room temperature (20–22 °C) and sampled at 2 kHz (filter = 1 kHz) using an Axopatch-1D amplifier equipped with a CV-4 headstage (Axon Instruments; Foster City, CA, USA). Drug solutions were applied using a fast perfusion system during the continuous monitoring of the seal resistance at 18–22 °C room temperature in excised patches. In whole-cell and cell-attached patch-clamp experiments, before recording, the cells were equilibrated for 10 s with the solution. Data acquisition and analysis were performed using pCLAMP 10 software suite (Axon Instruments; Foster City, CA, USA), as previously described. Seal resistance was continuously monitored during the experiment.
The percentage of KATP current inhibition induced by ZOL was calculated as (I CTRL-I drug)/(I CTRL-I BaCl2) × −100. The concentration response data of ZOL against different KATP channel currents were fitted by an algorithm using the non-linear dynamic fitting routine of Sigma Plot, 10.0.

KIR6.2-SUR2A = target: T5, KIR6.2-SUR2A (Homo sapiens, UniProt O60706+Q14654); assay: Whole-cell current of recombinant KIR6.2-SUR2A in Hek293 cells; assay type: cell-based
T5 construct: expressed in transfected cells; host or cells: Hek293
Protocol: as §1, §2, §8, §9, §7, §3

[4] = test system: KATP channels of Soleus (SOL) muscle fibers; assay: KATP currents in excised macro-patches from SOL muscle fibers (patch-clamp); assay type: cell-based, mice; conditions: excised macropatches
Source text: as §4, §5, §6, §7, §3

[5] = parameters: method as in PMID 24330023; conditions: multiple myeloma patients ref 9; cited from earlier work
[6] = parameters: method as in EudraVigilance database; conditions: cited from earlier work
[7] = musculoskeletal and connective tissues disorders S.O.C.
[8] = within the KATP channel blockers
[9] = all ages ref EudraVigilance database

T2 sequence (Q61743 whole entry): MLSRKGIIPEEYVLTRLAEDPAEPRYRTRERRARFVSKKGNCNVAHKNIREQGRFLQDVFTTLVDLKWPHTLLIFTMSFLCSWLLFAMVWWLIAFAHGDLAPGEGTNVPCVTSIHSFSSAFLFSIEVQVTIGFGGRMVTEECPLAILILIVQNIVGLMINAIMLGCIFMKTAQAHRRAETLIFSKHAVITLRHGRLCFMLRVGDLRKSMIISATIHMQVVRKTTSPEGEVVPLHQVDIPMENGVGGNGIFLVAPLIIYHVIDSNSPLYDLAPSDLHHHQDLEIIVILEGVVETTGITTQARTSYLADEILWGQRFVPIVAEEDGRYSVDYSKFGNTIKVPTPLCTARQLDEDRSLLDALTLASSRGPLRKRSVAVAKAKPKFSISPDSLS
T2 sequence (P70170 whole entry): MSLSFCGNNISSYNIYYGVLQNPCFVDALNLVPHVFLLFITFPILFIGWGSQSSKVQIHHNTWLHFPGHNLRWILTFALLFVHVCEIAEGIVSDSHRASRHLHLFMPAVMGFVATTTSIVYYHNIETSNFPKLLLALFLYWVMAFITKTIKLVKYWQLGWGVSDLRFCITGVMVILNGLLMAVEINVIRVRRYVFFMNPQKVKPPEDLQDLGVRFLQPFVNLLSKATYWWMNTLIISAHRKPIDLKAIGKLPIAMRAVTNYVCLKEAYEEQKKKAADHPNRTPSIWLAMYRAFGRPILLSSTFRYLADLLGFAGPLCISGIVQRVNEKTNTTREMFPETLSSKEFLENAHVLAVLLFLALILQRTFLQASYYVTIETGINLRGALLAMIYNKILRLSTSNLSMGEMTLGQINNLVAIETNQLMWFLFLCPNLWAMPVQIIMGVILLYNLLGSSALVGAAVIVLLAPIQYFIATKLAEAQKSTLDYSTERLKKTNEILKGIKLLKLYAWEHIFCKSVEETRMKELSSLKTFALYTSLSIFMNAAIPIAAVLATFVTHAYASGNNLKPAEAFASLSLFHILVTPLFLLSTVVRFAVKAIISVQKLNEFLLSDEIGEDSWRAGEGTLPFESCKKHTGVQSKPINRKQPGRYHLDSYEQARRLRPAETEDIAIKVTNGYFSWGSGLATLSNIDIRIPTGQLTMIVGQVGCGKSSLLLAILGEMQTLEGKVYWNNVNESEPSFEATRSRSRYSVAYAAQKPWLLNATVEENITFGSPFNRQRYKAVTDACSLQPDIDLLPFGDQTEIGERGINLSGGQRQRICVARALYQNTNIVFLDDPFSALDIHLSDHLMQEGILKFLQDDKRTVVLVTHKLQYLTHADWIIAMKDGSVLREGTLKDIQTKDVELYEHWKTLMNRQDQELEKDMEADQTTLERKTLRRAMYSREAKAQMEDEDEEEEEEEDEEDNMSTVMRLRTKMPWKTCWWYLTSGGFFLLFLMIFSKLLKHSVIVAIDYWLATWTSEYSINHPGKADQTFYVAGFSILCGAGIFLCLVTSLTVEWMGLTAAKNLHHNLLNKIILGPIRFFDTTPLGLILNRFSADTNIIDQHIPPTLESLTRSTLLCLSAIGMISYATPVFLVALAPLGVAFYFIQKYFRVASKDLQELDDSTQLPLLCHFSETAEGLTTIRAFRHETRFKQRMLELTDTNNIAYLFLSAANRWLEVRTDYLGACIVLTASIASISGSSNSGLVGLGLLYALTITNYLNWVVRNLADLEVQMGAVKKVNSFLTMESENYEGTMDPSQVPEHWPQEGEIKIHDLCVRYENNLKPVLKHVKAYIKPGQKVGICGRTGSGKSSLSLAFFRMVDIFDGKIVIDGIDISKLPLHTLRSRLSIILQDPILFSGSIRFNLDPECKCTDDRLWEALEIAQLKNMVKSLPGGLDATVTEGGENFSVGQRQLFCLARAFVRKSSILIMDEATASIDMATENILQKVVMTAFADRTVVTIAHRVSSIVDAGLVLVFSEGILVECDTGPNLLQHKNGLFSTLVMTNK
T5 sequence (Q14654 whole entry): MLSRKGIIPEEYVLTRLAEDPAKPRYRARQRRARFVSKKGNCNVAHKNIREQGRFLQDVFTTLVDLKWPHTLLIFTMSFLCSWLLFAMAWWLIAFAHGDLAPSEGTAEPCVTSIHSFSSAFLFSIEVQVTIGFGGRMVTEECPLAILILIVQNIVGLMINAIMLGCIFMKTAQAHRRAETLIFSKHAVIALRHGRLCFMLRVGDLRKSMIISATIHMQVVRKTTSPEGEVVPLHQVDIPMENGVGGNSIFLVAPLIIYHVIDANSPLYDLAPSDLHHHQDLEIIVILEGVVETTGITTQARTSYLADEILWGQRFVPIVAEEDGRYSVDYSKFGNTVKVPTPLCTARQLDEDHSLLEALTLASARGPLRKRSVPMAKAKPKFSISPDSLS
T5 sequence (O60706 whole entry): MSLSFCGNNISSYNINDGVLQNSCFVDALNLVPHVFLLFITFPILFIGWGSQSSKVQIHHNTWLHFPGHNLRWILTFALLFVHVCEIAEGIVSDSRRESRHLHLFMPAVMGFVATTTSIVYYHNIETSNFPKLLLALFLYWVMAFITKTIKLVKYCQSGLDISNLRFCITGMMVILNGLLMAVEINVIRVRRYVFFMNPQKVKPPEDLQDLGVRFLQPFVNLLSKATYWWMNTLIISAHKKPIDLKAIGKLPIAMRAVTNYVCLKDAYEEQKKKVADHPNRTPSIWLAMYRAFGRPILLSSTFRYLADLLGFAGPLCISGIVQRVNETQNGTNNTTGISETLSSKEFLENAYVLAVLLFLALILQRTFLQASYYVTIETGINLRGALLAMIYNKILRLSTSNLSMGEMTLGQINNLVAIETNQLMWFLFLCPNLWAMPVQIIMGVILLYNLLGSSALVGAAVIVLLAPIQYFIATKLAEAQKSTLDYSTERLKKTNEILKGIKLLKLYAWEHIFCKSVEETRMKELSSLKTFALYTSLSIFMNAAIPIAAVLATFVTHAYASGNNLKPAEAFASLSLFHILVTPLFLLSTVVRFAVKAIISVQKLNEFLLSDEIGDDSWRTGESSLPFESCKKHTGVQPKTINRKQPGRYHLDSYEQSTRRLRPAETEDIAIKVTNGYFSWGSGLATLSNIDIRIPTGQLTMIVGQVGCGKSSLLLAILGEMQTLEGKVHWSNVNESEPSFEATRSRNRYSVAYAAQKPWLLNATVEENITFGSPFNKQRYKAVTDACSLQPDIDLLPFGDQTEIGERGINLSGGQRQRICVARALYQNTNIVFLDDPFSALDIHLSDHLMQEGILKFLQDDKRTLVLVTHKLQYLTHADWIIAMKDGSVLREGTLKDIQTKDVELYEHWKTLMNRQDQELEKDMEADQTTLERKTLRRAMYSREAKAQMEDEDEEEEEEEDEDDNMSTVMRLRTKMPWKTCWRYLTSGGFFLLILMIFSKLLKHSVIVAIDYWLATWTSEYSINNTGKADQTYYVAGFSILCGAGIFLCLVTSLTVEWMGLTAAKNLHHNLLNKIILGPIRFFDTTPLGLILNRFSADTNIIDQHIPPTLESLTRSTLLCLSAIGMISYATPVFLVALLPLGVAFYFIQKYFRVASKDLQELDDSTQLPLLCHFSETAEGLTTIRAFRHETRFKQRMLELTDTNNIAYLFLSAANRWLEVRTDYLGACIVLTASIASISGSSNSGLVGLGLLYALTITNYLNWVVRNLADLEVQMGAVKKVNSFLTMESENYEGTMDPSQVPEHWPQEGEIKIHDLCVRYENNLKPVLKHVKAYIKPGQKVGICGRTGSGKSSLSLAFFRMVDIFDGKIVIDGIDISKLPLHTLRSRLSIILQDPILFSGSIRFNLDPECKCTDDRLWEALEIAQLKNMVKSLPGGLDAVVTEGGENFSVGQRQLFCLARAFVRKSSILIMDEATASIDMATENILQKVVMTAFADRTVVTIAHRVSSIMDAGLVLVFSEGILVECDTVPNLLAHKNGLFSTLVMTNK

O=P(O)(O)C(O)(Cn1ccnc1)P(=O)(O)O [Zoledronic acid]
Imax % (KIR6.1-SUR1): * −40 ± 8.8 n = 3 cells %
pIC50 [1]: 5.92
Slope ([1]; concentration-response fit): 0.38 ± 0.07
Imax % ([1]; −60 mV, symmetrical 150 mM K+): −100.1 ± 9.3 n = 17 fibers %
pIC50 (KIR6.1-SUR2B): 9.41
Slope (KIR6.1-SUR2B): 0.59 ± 0.04
Imax % (KIR6.1-SUR2B; −60 mV): −94 ± 4.8 n = 15 cells %
pIC50 (KIR6.2-SUR1): 4.68
Slope (KIR6.2-SUR1): * 0.18 ± 0.09
Imax % (KIR6.2-SUR1; −60 mV): * −60.13 ± 4.1 n = 15 cells %
hypoglycemia, % of the A.D.R. per S.O.C. [2]: 1.63%
arrhythmia, % of cardiac A.D.R. ([2]; cardiac A.D.R.): 8.1%
atrial fibrillation, % of cardiac A.D.R. ([2]; cardiac A.D.R.): 17.9%
congestive heart failure, % of cardiac A.D.R. ([2]; cardiac A.D.R.): 12.6%
myocardial infarction, % of cardiac A.D.R. ([2]; cardiac A.D.R.): 12%
palpitations, % of cardiac A.D.R. ([2]; cardiac A.D.R.): 13.2%
sinus tachycardia, % of cardiac A.D.R. ([2]; cardiac A.D.R.): 5.3%
tachycardia, % of cardiac A.D.R. ([2]; cardiac A.D.R.): 12.2%
arthralgia, % of the A.D.R. [2, 7]: 16%
muscular weakness, % of the A.D.R. per S.O.C. [2, 7]: 2.7%
myalgia, % of the A.D.R. [2, 7]: 10%
osteonecrosis of the jaw, % of the total A.D.R. [2, 7]: 47.9%
blood pressure increase, % of A.D.R. ([2]; vascular S.O.C.): 16%
hypertension, % of A.D.R. ([2]; vascular S.O.C.): 25%
hypotension, % of A.D.R. ([2]; vascular S.O.C.): 18%
Proportional Reporting Ratio (P.R.R.) arrhythmias [2, 8]: ≥ 2
Proportional Reporting Ratio (P.R.R.) atrial fibrillation [2, 8]: ≥ 2
Proportional Reporting Ratio (P.R.R.) diarrhea [2, 8]: ≥ 2
Proportional Reporting Ratio (P.R.R.) hypertension [2, 8]: ≥ 2
Proportional Reporting Ratio (P.R.R.) hypoglycemia [2, 8]: lower risk
Proportional Reporting Ratio (P.R.R.) muscular weakness [2, 8]: ≥ 2
Proportional Reporting Ratio (P.R.R.) myalgia [2, 8]: ≥ 2
Proportional Reporting Ratio (P.R.R.) osteonecrosis of jaw [2, 8]: ≥ 2
Proportional Reporting Ratio (P.R.R.) rhabdomyolysis [2, 8]: lower risk
pIC50 [3]: 9.80
Imax % [3]: −104.8 ± 8.7 n = 21 cells %
Slope [3]: 0.31 ± 0.07
pIC50 (KIR6.2-SUR2A): 5.15
Slope (KIR6.2-SUR2A): * 0.12 ± 0.7
Imax % (KIR6.2-SUR2A; −60 mV): −83.7 ± 1.2 n = 15 cells %
pIC50 [4]: 9.68
Slope ([4]; concentration-response fit): 0.29 ± 0.05
Imax % ([4]; −60 mV, symmetrical 150 mM K+): −99.4 ± 5 n = 21 fibers %
median overall survival [5]: 52 months
osteonecrosis of the jaw, affected females [6, 9]: 4792
osteonecrosis of the jaw, affected males [6, 9]: 3184
adverse reaction cases reported ([6]; all indications, up to 1 May 2021 ref EudraVigilance database): 35,201 cases
arrhythmia, number of reports ([6]; cardiac A.D.R. ref EudraVigilance database): 197

CCC1=C(C)CN(C(=O)NCCc2ccc(S(=O)(=O)NC(=O)N[C@H]3CC[C@H](C)CC3)cc2)C1=O [glimepiride]
hypoglycemia, % of the A.D.R. per S.O.C. [2]: 75.6%
rhabdomyolysis, % of A.D.R. [2]: 17.7%
Proportional Reporting Ratio (P.R.R.) hypoglycemia [2, 8]: ≥ 2

CC(C)[C@H]1CC[C@H](C(=O)N[C@H](Cc2ccccc2)C(=O)O)CC1 [nateglinide]
hypoglycemia, % of the A.D.R. per S.O.C. [2]: 77.9%
rhabdomyolysis, % of A.D.R. [2]: 18.4%
Proportional Reporting Ratio (P.R.R.) arrhythmias [2, 8]: ≥ 2
Proportional Reporting Ratio (P.R.R.) hypoglycemia [2, 8]: ≥ 2
Proportional Reporting Ratio (P.R.R.) palpitations [2, 8]: ≥ 2
Proportional Reporting Ratio (P.R.R.) rhabdomyolysis [2, 8]: ≥ 2
